Data taken from patent US6068976A, “Modulators of ob gene and screening methods therefor” (priority 1996, dated 2000).
Read-outs that look alike come from different tables or passages of the source. No end group written: not given here.

Assays:
[1] = cited from earlier work
[2] = tested on: 3T3-F442A and ob 17 cells; details: cited from earlier work
[3] = tested on: PPAR nuclear hormone receptors; details: cited from earlier work
ob gene [4] = assay: Ex vivo endogenous ob mRNA expression in rat primary adipocytes; type: cell-based; details: for ob mRNA expression in primary rat adipocytes: 24 hr; for production of ob messenger RNA in rat primary adipocytes: insulin 100 nM or dexamethasone 33 nM
human ob promoter [5] = assay: Human ob promoter-luciferase reporter in transfected rat primary adipocytes
ob gene [6] = assay: In vivo ob mRNA levels in adipose tissue of treated rats (Northern/dot blot, actin-normalised); parameters: species or system rat
human ob promoter [7] = assay: Human ob promoter-luciferase reporter in transfected 3T3-L1 cells
[8] = In vivo body weight, food intake and tissue weights in treated rats; details: for food consumption: 4 days, triamcinolone 20 or dexamethasone 3.7 μg/g body weight/day; for Epidydimal fat pad weight / Liver weight / Body Mass: oral gavage; for Epidydimal fat pad weight: control 2.5 ± 0.3, * p < 0.05; for Liver weight: control 16.8 ± 1.3; for Body Mass: control 344 ± 22
[9] = Body weight and food intake of male mice injected with ethinylestradiol; type: in vivo, mouse; details: 0.75 μg/g body weight, 7 day
[10] = in vivo; cited from earlier work
cachexia = details: cancer patients; cited from earlier work
[11] = 4 days, triamcinolone 20 or dexamethasone 3.7 μg/g body weight/day
[12] = fenofibrate 0.5% w/w in food, 14 days
[13] = hydrocortisone 1, 10 or 100 μg/g body weight, s.c., once daily, 20 days
[14] = hydrocortisone 100 μg/g body weight, once daily, 20 days

## N[C@@H](Cc1cc(I)c(Oc2cc(I)c(O)c(I)c2)c(I)c1)C(=O)O [thyroxine]
[1]; rats, literature
  body weight: decrease in body weight
  food intake: increase in food intake

## CC1=C(/C=C/C(C)=C/C=C/C(C)=C/C(=O)O)C(C)(C)CCC1 [Retinoic acid]
[2]
  adipogenesis: inhibit adipogenesis

## CC(C)(Oc1ccc(Cl)cc1)C(=O)O [Clofibric acid]
[3]
  transcriptional activity of PPARs: stimulate transcriptional activity of the PPAR nuclear hormone receptors

## CC(C)(Oc1ccc(C(=O)c2ccc(Cl)cc2)cc1)C(=O)O [fenofibric acid]
Ob gene [4]; 250 μM
  ob mRNA expression in primary rat adipocytes: no effect of fenofibrate on ob mRNA levels was detected

## CCCCC(CC)COC(=O)c1ccccc1C(=O)OCC(CC)CCCC (centres unmarked) [di-(2-ethylhexyl)-phtalate]
[3]
  transcriptional activity of PPARs: transcriptional activity of the PPARs can be induced

## CCc1ccc(CCOc2ccc(CC3SC(=O)NC3=O)cc2)nc1 (centres unmarked) [Pioglitazone, pioglitazone]
Human ob promoter [5]; Homo sapiens, Adipocyte, read-out: decrease in pGL3-OB1 expression
  inhibition at 10 µM: ~30%
Human ob promoter [5]; Homo sapiens, Adipocyte, read-out: inhibition of pGL3-OB1 expression
  inhibition at 10 µM: ~50%

## insulin: insulin (1 U; Actrapid HMge, Novo Nordisk)
Ob gene [6]; hyper- or eu-glycemic clamps
  stimulatory effect of insulin on ob mRNA under clamp: maintained when plasma glucose levels were maintained at either high or low levels
Ob gene [6]; refeeding plus insulin after overnight fast
  ob mRNA level, refeeding plus insulin: no additive effects on ob mRNA level
Ob gene [6]; single dose insulin (1 U), fasted rats, 4 hours
  increase in adipose tissue ob gene expression relative to fasted rats: 50-60%
Ob gene [6]; single subcutaneous injection 1 I.U. insulin, 4 hours post injection, fasted rats
  increase in ob mRNA relative to actin controls: approximately two-fold increase
Ob gene [4]; 1 or 10 nM insulin, 10% FBS
  production of ob mRNA in primary rat adipocytes: stimulated the production of ob mRNA in a dose dependent manner
Ob gene [4]; 48 hours
  production of ob messenger RNA in rat primary adipocytes: stimulated production of the ob messenger RNA
Human ob promoter [7]; pGL3-OB1 in 3T3-L1 cells, insulin, control plasmid unaffected
  ob promoter luciferase expression in response to insulin: two-fold
Human ob promoter [5]; 200 nM insulin, 10% FBS, primary adipocytes with pGL3B-OB1
  increase of the level of ob mRNA (pGL3B-OB1 luciferase vector): 140%

## C[C@]12C=CC(=O)C=C1CC[C@H]1[C@@H]3C[C@@H](O)[C@](O)(C(=O)CO)[C@@]3(C)C[C@H](O)[C@@]12F [triamcinolone]
Ob gene [6]; [11]
  ob mRNA levels: increase of ob mRNA levels
[8]
  food consumption: reduced food consumption

## CC(C)OC(=O)C(C)(C)Oc1ccc(C(=O)c2ccc(Cl)cc2)cc1 [fenofibrate]
Ob gene [6]; [12]
  ob mRNA levels: did not result in a reduction of ob mRNA levels
[3]
  transcriptional activity of PPARs: stimulate transcriptional activity of the PPAR nuclear hormone receptors
[8]; [12]
  body or adipose tissue weight: did not result in a change in body or adipose tissue weight
[8]; fenofibrate 0.5% w/w in food, 14 days, from 13.8±0.5
  liver weight after treatment: 19.7 ± 2.5 g

## CC(C)(Oc1ccc(Cl)cc1)C(=O)OCCOC(=O)c1cccnc1 [etiofibrate]
[3]
  transcriptional activity of PPARs: stimulate transcriptional activity of the PPAR nuclear hormone receptors

## C[C@]12CC[C@H](O)CC1=CC[C@@H]1[C@@H]2CC[C@]2(C)C(=O)CC[C@@H]12 [DHEA, Dihydroepiandosterone]
[8]; DHEA, short experiment, rats
  food intake: significant decrease in food intake
[8]; DHEA, three day treatment, rats
  gain in body weight: capable of reducing the gain in body weight already after a three day treatment period

## C#C[C@]1(O)CC[C@H]2[C@@H]3CCc4cc(O)ccc4[C@H]3CC[C@@]21C [ethinyl estradiol, ethinylestradiol]
[9]; injected, sham +1.81±1.04%
  decrease in body weight: 14.83±1.44%
[9]; male mice
  food intake: important reduction in food intake
[1]; ovariectomized rats, pair-fed
  body weight effect under pair-feeding: pair-feeding abolished the effects of estrogens on body weight
[1]; ovariectomized rats, substitution therapy
  body weight: marked effect on body weight in ovariectomized rats

## CC(COc1ccccc1)N(CCCl)Cc1ccccc1 (centres unmarked) [phenoxybenzamide]
[10]
  weight gain and fat accumulation: prevents weight gain and fat accumulation

## Cc1ccc(C)c(OCCCC(C)(C)C(=O)O)c1 [gemfibrozil]
[3]
  transcriptional activity of PPARs: stimulate transcriptional activity of the PPAR nuclear hormone receptors

## corticotropin-releasing hormone: corticotropin-releasing hormone (SEEPPISLDLTFHLLREVLEMARAEQLAQQAHSNRKLMEII; ends and bridges not checked; UniProt P06850 154-194, looked up)
[1]; hypothalamic administration, fat rats
  body weight: reduces body weight

## C[C@]12CCC(=O)C=C1CC[C@@H]1[C@@H]2[C@@H](O)C[C@@]2(C)[C@H]1CC[C@]2(O)C(=O)CO [hydrocortisone]
Ob gene [6]; hydrocortisone 100 μg/g body weight/day
  time of maximal ob mRNA effect: 2 days
Ob gene [6]; hydrocortisone 100 μg/g body weight/day, adipose tissue
  increase of ob mRNA levels: more than 2 fold
Ob gene [6]; [13]
  ob mRNA levels in adipose tissue: dose-dependent induction of ob mRNA levels in adipose tissue
Ob gene [6]; hydrocortisone, entire treatment period
  β-actin mRNA levels: remained constant
[8]; hydrocortisone 100 μg/g body weight, 20 days
  body weight at end of treatment: slight decrease in body weight
[8]; [14]
  body weight gain: completely prevented this gain in body weight
  reduction of food consumption vs untreated animals: 10-15%
[8]; [13]
  body weight gain: dose-dependent reduction in body weight gain

## C[C@@H]1C[C@H]2[C@@H]3CCC4=CC(=O)C=C[C@]4(C)[C@@]3(F)[C@@H](O)C[C@]2(C)[C@@]1(O)C(=O)CO [dexamethasone]
Ob gene [6]; [11]
  ob mRNA levels: increase of ob mRNA levels
Ob gene [6]; within 24 hr after a single injection of dexamethasone (3.7 μg/g)
  increase of ob mRNA levels in rat adipose tissue: 2.2 fold
Ob gene [4]; dexamethasone 33 nM vs insulin 100 nM, 48 hours
  stimulation of ob gene expression, comparison with insulin: stronger stimulation of ob gene expression than insulin
Ob gene [4]; 48 hours
  production of ob messenger RNA in rat primary adipocytes: stimulated production of the ob messenger RNA
[8]
  food consumption: reduced food consumption

## CN(CCOc1ccc(CC2SC(=O)NC2=O)cc1)c1ccccn1 (centres unmarked) [BRL 49653, 5-[[4-[2-(methyl-2-pyridinylamino)ethoxy]phenyl]methyl]-2,4-thiazolidinedione]
Ob gene [6]; BRL 49653 0, 1, 2 or 5 mg/kg/day, 7 days
  effect on ob mRNA expression, dose dependence: dose-dependent
Ob gene [6]; BRL 49653 5 mg/kg/day, 7 days
  decrease of ob mRNA levels in epidydimal fat pads: 40%
Ob gene [4]; 100 μM, three independent experiments
  ob mRNA expression in primary rat adipocytes: reduced ob mRNA expression significantly
Ob gene [4]; primary adipocytes
  suppression of ob gene expression by PPARγ in primary adipocytes: amplifies the suppression of ob gene expression by PPARγ in primary adipocytes
Human ob promoter [7]; with PPARγ cotransfection
  effect on pGL3-OB1 in addition to PPARγ: slight cumulative effect
[8]; 0, 1, 2, and 5 mg/kg/day over 7 days
  body or liver weight: no change in either body or liver weight
[8]; 5 mg/kg/day, 7 days, 0.75%±0.1 before, p<0.05
  ratio of adipose tissue/body weight after treatment: 1.2%±0.2
[8]; 5, 10, 20 mg/kg/day over 7 days
  food intake: significant dose dependent increase in food intake
[8]; BRL 49653 1 mg/kg/day, 7 days
  Epidydimal fat pad weight: 3.3 ± 0.2 g
  Liver weight: 17.9 ± 1.3 g
[8]; BRL 49653 1 mg/kg/day, 7 days, mean ± SD
  Body Mass: 355 ± 21 g
[8]; BRL 49653 2 mg/kg/day, 7 days
  Epidydimal fat pad weight: 3.8 ± 0.5 g
  Liver weight: 18.9 ± 0.6 g
  Body Mass: 361 ± 18 g
[8]; BRL 49653 5 mg/kg/day, 7 days
  Epidydimal fat pad weight: 4.0 ± 0.6 g
  Liver weight: 17.4 ± 1.8 g
  Body Mass: 338 ± 9 g
[8]; BRL 49653 1, 2, 5 mg/kg/day, 7 days
  epidydimal fat pad weight (trend): dose-dependent increase in epidydimal fat pad weight
[8]; rats
  food intake and body weight (summary statement): increasing food intake and body weight in rats
[8]; relatively low doses (1, 2, 5 mg/kg/day), 7 days
  food intake: food intake showed a tendency to decrease, although no statistical significance was obtained
Human ob promoter [5]; 10 μM, with PPARγ cotransfection
  additional effect on ob promoter activity: no further effect
Human ob promoter [5]; Homo sapiens, Adipocyte, read-out: ob promoter activity reduced to
  activity at 10 µM: 40%

## O=C(O)COc1cc(Cl)c(Cl)cc1Cl [2,4,5-trichlorophenoxyacetic acid]
[3]
  transcriptional activity of PPARs: transcriptional activity of the PPARs can be induced

## CC(=O)CCCCn1c(=O)c2c(ncn2C)n(C)c1=O [pentoxifylline]
cachexia
  reduction of cachexia: improve the conditions of some patients

## N-propyl-thiouracil
[1]; rats, literature
  body weight: significant increase in body weight
  food intake: ingest less food
